Columns and labels:
[1] = unlike the known diuretics; cited from earlier work
[2] = various model oxidative reactions; compared with α-tocopherol, ascorbic acid, Trolox; cited from earlier work
[3] = ratio to α-tocopherol; cited from earlier work

Cc1c(O)cc2c(c1C)OC(C)(CCC(=O)O)CC2 (stereo not shown) [γ-CEHC]
excretion of sodium ions / potassium ions [1]: exclusively selectively promotes the excretion of sodium ions without affecting potassium ions

Cc1c(C)c2c(c(C)c1O)CCC(C)(CCC(=O)O)O2 (stereo not shown) [acid (II), 2,5,7,8-tetramethyl-2-(2′-carboxyethyl)-6-hydroxychroman]
antioxidant activity in vitro [2]: high antioxidant properties comparable with such known preparations as α-tocopherol, ascorbic acid, and the cardioprotective agent Trolox

CC(=O)Oc1c(C)c(C)c2c(c1C)CCC(C)(CCC[C@H](C)CCC[C@H](C)CCCC(C)C)O2 (stereo partly drawn) [α-tocopheryl acetate]
vitamin activity relative to non-acetylated α-tocopherol [3]: 1.47 times

CC(=O)Oc1c(C)c(C)c2c(c1C)CCC(C)(CCC(=O)O)O2 (stereo not shown) [(V), 2,5,7,8-tetramethyl-2-(2′-carboxyethyl)-6-acetoxychroman]
melting point: 149 to 150 °C

Reference: patent US7803955B2, “Method for preparing 2,5,7,8-tetramethyl-2-(2′-carboxyethyl)-6-acetoxychroman-precursor- α-CEHC precursor” (Institut Neftekhimii I Kataliza Ran, priority 2005, dated 2010)
